Experimental data published in PubChem BioAssay AID256 (DTP/NCI, 2004).
Where “and” joins values, the source holds several entries; their conditions need not be identical. Equal entries are not always repeated. Toxic doses and inconclusive results are not listed.

Tested on: CD2F1 mice, L1210 leukemia ip, survival T/C
Test: NCI In Vivo Anticancer Drug Screen. Data for tumor model L1210 Leukemia (intraperitoneal) in CD2F1 (CDF1) mice
Settings: endpoint: mean survival time, higher = longer survival
Summary of the method: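 Compound-dosed mice with transplantable tumor versus matched vehicle controls; endpoint ratio T/C reported.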

[1] = dose: 100.0 mg/kg/injection, schedule: Q01DX009 (ip), vehicle: saline with Tween-80
[2] = dose: 100.0 mg/kg/injection, schedule: Q04DX003 (ip), vehicle: saline
[3] = dose: 200.0 mg/kg/injection, schedule: Q04DX003 (ip), vehicle: saline
[4] = dose: 400.0 mg/kg/injection, schedule: Q04DX003 (ip), vehicle: saline
[5] = dose: 200.0 mg/kg/injection, schedule: Q01DX009 (ip), vehicle: saline with Tween-80
[6] = dose: 400.0 mg/kg/injection, schedule: Q01DX009 (ip), vehicle: saline with Tween-80
[7] = dose: 25.0 mg/kg/injection, schedule: Q04DX002 (ip), vehicle: saline with Tween-80
[8] = dose: 50.0 mg/kg/injection, schedule: Q04DX002 (ip), vehicle: saline with Tween-80
[9] = dose: 100.0 mg/kg/injection, schedule: Q04DX002 (ip), vehicle: saline with Tween-80
[10] = dose: 100.0 mg/kg/injection, schedule: Q01DX001 (ip), vehicle: saline with Tween-80
[11] = dose: 200.0 mg/kg/injection, schedule: Q01DX001 (ip), vehicle: saline with Tween-80
[12] = dose: 400.0 mg/kg/injection, schedule: Q01DX001 (ip), vehicle: saline with Tween-80
[13] = dose: 200.0 mg/kg/injection, schedule: Q04DX002 (ip), vehicle: saline with Tween-80
[14] = dose: 400.0 mg/kg/injection, schedule: Q04DX002 (ip), vehicle: saline with Tween-80
[15] = dose: 50.0 mg/kg/injection, schedule: Q01DX009 (ip), vehicle: Klucel (hydroxypropylcellulose) (HPC)
[16] = dose: 100.0 mg/kg/injection, schedule: Q04DX002 (ip), vehicle: saline
[17] = dose: 200.0 mg/kg/injection, schedule: Q04DX002 (ip), vehicle: saline

In the case of NNc1ncnc2c(C3OC(CO)C(O)C3O)[nH]nc12 (centres undefined), the T/C (dose: 150.0 mg/kg/injection, schedule: Q01DX009 (ip), vehicle: saline sonified) is reported as 155 % of control.

In the case of CS(=O)(=O)OCCCOS(C)(=O)=O, the T/C (dose: 12.5 mg/kg/injection, schedule: Q01DX009 (ip), vehicle: saline with Tween-80) is reported as 107 % of control, the T/C (dose: 25.0 mg/kg/injection, schedule: Q01DX009 (ip), vehicle: saline with Tween-80) is reported as 116 % of control and the T/C (dose: 50.0 mg/kg/injection, schedule: Q01DX001 (ip), vehicle: saline) is reported as 96 % of control. The T/C (dose: 50.0 mg/kg/injection, schedule: Q01DX009 (ip), vehicle: saline with Tween-80) was 116 % of control, the T/C (dose: 100.0 mg/kg/injection, schedule: Q01DX001 (ip), vehicle: saline) was 100 % of control and the T/C [1] was 105 % of control. The T/C [2] was 105 % of control, the T/C (dose: 200.0 mg/kg/injection, schedule: Q01DX001 (ip), vehicle: saline) was 102 % of control and the T/C [3] was 106 % of control. The T/C (dose: 400.0 mg/kg/injection, schedule: Q01DX001 (ip), vehicle: saline) was 100 % of control and the T/C [4] was 110 % of control.

With Cc1ccc(NC(=S)N2CCCC2)cc1 the T/C [1] was 97 % of control, the T/C [5] was 91 % of control and the T/C [6] was 95 % of control.

In the case of Nc1nc(N)c2cc(CCc3ccc(C(=O)NC(CCC(=O)O)C(=O)O)cc3)ccc2n1 (centres undefined), the T/C (dose: 0.31 mg/kg/injection, schedule: Q01DX009 (ip), vehicle: Klucel (hydroxypropylcellulose) (HPC)) is reported as 119 % of control.

CCOC(=O)N1C(=O)C2C3CCC(O3)C2C1=O (centres undefined) was tested, and the T/C [7] was 104 % of control, the T/C [8] was 90 % of control and the T/C [9] was 109 % of control.

For O=C(O)C1(C(=O)O)CCCCC1.[NH-]CC1(C[NH-])CCCCC1.[Pt+2], the T/C (dose: 30.0 mg/kg/injection, schedule: Q04DX003 (ip), vehicle: suspension in saline) was 118 % of control and the T/C (dose: 60.0 mg/kg/injection, schedule: Q04DX003 (ip), vehicle: suspension in saline) was 118 % of control.

ONc1nc(NO)c2[nH]cnc2n1 was tested, and the T/C (dose: 2.3 mg/kg/injection, schedule: Q01DX001 (ip), vehicle: other) was 124 % of control, the T/C (dose: 3.5 mg/kg/injection, schedule: Q01DX001 (ip), vehicle: other) was 122 % of control and the T/C (dose: 8.0 mg/kg/injection, schedule: Q01DX001 (ip), vehicle: other) was 160 % of control and 168 % of control. For the same compound, the T/C (dose: 12.5 mg/kg/injection, schedule: Q01DX001 (ip), vehicle: other) was 153 % of control, the T/C (dose: 29.0 mg/kg/injection, schedule: Q01DX001 (ip), vehicle: other) was 156 % of control and the T/C (dose: 44.0 mg/kg/injection, schedule: Q01DX001 (ip), vehicle: other) was 153 % of control and 172 % of control. The T/C (dose: 66.0 mg/kg/injection, schedule: Q01DX001 (ip), vehicle: other) was 190 % of control, the T/C (dose: 100.0 mg/kg/injection, schedule: Q01DX001 (ip), vehicle: other) was 202 % of control and the T/C (dose: 150.0 mg/kg/injection, schedule: Q01DX001 (ip), vehicle: other) was 182 % of control.

With CN(C)N=C1CCCCCC1 the T/C (dose: 75.0 mg/kg/injection, schedule: Q01DX001 (ip), vehicle: saline) was 102 % of control and the T/C (dose: 150.0 mg/kg/injection, schedule: Q01DX001 (ip), vehicle: saline) was 98 % of control.

In the case of CSc1nc(=O)n(C2OC(CO)C(O)C2O)nc1SCc1ccccc1 (centres undefined), the T/C (dose: 12.5 mg/kg/injection, schedule: Q01DX005 (ip), vehicle: distilled water + Tween-80) is reported as 94 % of control, the T/C (dose: 25.0 mg/kg/injection, schedule: Q01DX005 (ip), vehicle: distilled water + Tween-80) is reported as 94 % of control and the T/C (dose: 50.0 mg/kg/injection, schedule: Q01DX005 (ip), vehicle: distilled water + Tween-80) is reported as 92 % of control.

Cc1cccc(C)c1N was tested, and the T/C [10] was 96 % of control, the T/C [11] was 94 % of control and the T/C [12] was 91 % of control.

With NNC(=O)CCCCCCCCCCCCCCO the T/C [11] was 87 % of control and the T/C [12] was 90 % of control.

For CN(C)C(=O)c1cc[n+](Cc2ccc(Cl)c(Cl)c2)cc1, the T/C (dose: 25.0 mg/kg/injection, schedule: Q01DX009 (ip), vehicle: saline) was 98 % of control, the T/C (dose: 50.0 mg/kg/injection, schedule: Q01DX009 (ip), vehicle: saline) was 121 % of control and the T/C (dose: 100.0 mg/kg/injection, schedule: Q01DX009 (ip), vehicle: saline) was 89 % of control.

For COC(=O)C1CN=NC1C(=O)OC (centres undefined), the T/C [1] was 95 % of control, the T/C [5] was 95 % of control and the T/C [6] was 91 % of control.

For Cc1ccc([N+](=O)[O-])cc1NC(=O)NNC(=O)CNC(=O)Nc1ccc(F)cc1, the T/C [5] was 87 % of control and the T/C [6] was 92 % of control.

In the case of COc1ccc2[nH]c3cc(Cl)ccc3c(=O)c2c1, the T/C [10] is reported as 87 % of control and the T/C [12] is reported as 90 % of control.

With COc1ccc(C2OC23CC(C)(C)c2ccccc2C3=O)cc1 (centres undefined) the T/C (dose: 100.0 mg/kg/injection, schedule: Q01DX009 (ip), vehicle: other) was 107 % of control, the T/C (dose: 200.0 mg/kg/injection, schedule: Q01DX009 (ip), vehicle: other) was 100 % of control and the T/C (dose: 400.0 mg/kg/injection, schedule: Q01DX009 (ip), vehicle: other) was 91 % of control.

In the case of O=S(=O)(Nc1ccc(Cc2ccc(NS(=O)(=O)c3ccccc3)cc2)cc1)c1ccccc1, the T/C [10] is reported as 88 % of control, the T/C [11] is reported as 90 % of control and the T/C [12] is reported as 88 % of control.

CC(C)OC(=O)N(C(=O)OC(C)C)c1ccccc1 was tested, and the T/C [9] was 94 % of control, the T/C [13] was 108 % of control and the T/C [14] was 94 % of control.

In the case of CN1C(CC(O)(c2ccccc2)c2ccccc2)CCCC1CC(O)(c1ccccc1)c1ccccc1 (centres undefined), the T/C [10] is reported as 91 % of control, the T/C [11] is reported as 96 % of control and the T/C [12] is reported as 91 % of control.

With Cc1ccc(S(=O)(=O)NN2CCOC2=O)cc1 the T/C [15] was 100 % of control, the T/C (dose: 100.0 mg/kg/injection, schedule: Q01DX009 (ip), vehicle: Klucel (hydroxypropylcellulose) (HPC)) was 91 % of control and the T/C (dose: 200.0 mg/kg/injection, schedule: Q01DX009 (ip), vehicle: Klucel (hydroxypropylcellulose) (HPC)) was 100 % of control.

In the case of CC(=O)c1cccc(N=C(N)N)c1, the T/C (dose: 75.0 mg/kg/injection, schedule: Q01DX001 (ip), vehicle: saline with Tween-80) is reported as 98 % of control, the T/C (dose: 150.0 mg/kg/injection, schedule: Q01DX001 (ip), vehicle: saline with Tween-80) is reported as 96 % of control and the T/C (dose: 300.0 mg/kg/injection, schedule: Q01DX001 (ip), vehicle: saline with Tween-80) is reported as 97 % of control.

With Cc1c2c(cc3c1CCC1(C)C3CCC1C(C)/C=C/C(C)C(C)C)CC(O)CC2 (centres undefined) the T/C [10] was 92 % of control, the T/C [11] was 95 % of control and the T/C [12] was 92 % of control.

In the case of C=CCOC1C=CCCC1 (centres undefined), the T/C [16] is reported as 100 % of control, the T/C [17] is reported as 100 % of control and the T/C (dose: 400.0 mg/kg/injection, schedule: Q04DX002 (ip), vehicle: saline) is reported as 91 % of control.

With CCCCCCCCCCOc1ccc(Cl)cc1Cl the T/C [9] was 101 % of control, the T/C [13] was 101 % of control and the T/C [14] was 90 % of control.

For O=C(c1ccccc1)C1(Br)CCCCC1, the T/C (dose: 50.0 mg/kg/injection, schedule: Q04DX003 (ip), vehicle: saline) was 95 % of control, the T/C (dose: 100.0 mg/kg/injection, schedule: Q04DX003 (ip), vehicle: Klucel (hydroxypropylcellulose) (HPC)) was 101 % of control and the T/C [2] was 96 % of control. For the same compound, the T/C (dose: 200.0 mg/kg/injection, schedule: Q04DX003 (ip), vehicle: Klucel (hydroxypropylcellulose) (HPC)) was 96 % of control, the T/C [3] was 93 % of control and the T/C (dose: 400.0 mg/kg/injection, schedule: Q04DX003 (ip), vehicle: Klucel (hydroxypropylcellulose) (HPC)) was 106 % of control. For the same compound, the T/C [4] was 98 % of control.

In the case of CCOC(=O)c1cnc2c(ccc3ncccc32)c1NCCCN(CC)CC, the T/C (dose: 12.5 mg/kg/injection, schedule: Q01DX009 (ip), vehicle: Klucel (hydroxypropylcellulose) (HPC)) is reported as 93 % of control, the T/C (dose: 25.0 mg/kg/injection, schedule: Q01DX009 (ip), vehicle: Klucel (hydroxypropylcellulose) (HPC)) is reported as 97 % of control and the T/C [15] is reported as 97 % of control.

O=C(Nc1ccc(Cl)cc1)c1cc(Br)ccc1O was tested, and the T/C (dose: 100.0 mg/kg/injection, schedule: Q04DX003 (ip), vehicle: saline with Tween-80) was 92 % of control, the T/C (dose: 200.0 mg/kg/injection, schedule: Q04DX003 (ip), vehicle: saline with Tween-80) was 88 % of control and the T/C (dose: 400.0 mg/kg/injection, schedule: Q04DX003 (ip), vehicle: saline with Tween-80) was 92 % of control.

For C=CCOC(c1ccc2c(c1)OCO2)C(C)Br (centres undefined), the T/C [10] was 94 % of control, the T/C [11] was 94 % of control and the T/C [12] was 94 % of control.

Cc1ccc(S(=O)(=O)NN2C(=O)c3ccccc3C2=O)cc1 was tested, and the T/C [7] was 96 % of control, the T/C [8] was 96 % of control and the T/C [9] was 100 % of control. The T/C [13] was 96 % of control.

O=C(O)C1(C(=O)O)CCC1 was tested, and the T/C [16] was 92 % of control and the T/C [17] was 111 % of control.
